These results are taken from US10604513B2, “Pyridone derivative comprising heteroatomic ring butane substituent, for treating fibrosis and inflammatory diseases” (SHIJIAZHUANG SAGACITY NEW DRUG DEVELOPMENT CO., LTD., priority 2016, dated 2020).

Experiment [1] concerns endotoxin (LPS)-induced TNF-α in rat blood. Description: Effect of compounds on endotoxin (LPS)-induced TNF-α in rat blood in vitro. In kind it is cell-based, Sprague Dawley rats. The settings on record: for inhibition at 500 µM: tested concentration of compound 0.5 Mm (footnote *); for inhibition at 500 µM / inhibition at 100 µM: LPS 100 μg/mL, rat blood, 5 h; for inhibition of TNF-α level induced by LPS (in words): compared with Pirfenidone; for inhibition at 100 µM: tested concentration of compound 0.1 mM. The protocol: Main task: evaluation on effect of compounds on endotoxin (LPS)-induced TNF-α in rat blood in vitro
Experimental purpose: testing effect of compounds on endotoxin (LPS)-induced TNF-α in rat blood in vitro, and evaluate effect of compounds on endotoxin (LPS)-induced TNF-α in rat blood in vitro
Sprague Dawley rats (male, 210-260 g, Shanghai Slac Laboratory Animal CO. LTD) Rat TNF-alpha Quantikine ELISA Kit (R&D, #SRTA00)
A solution of the compound was prepared (5 mM or 1 mM), 40 μL was added into a 48-well cell culture plate, respectively (the final concentration was 0.5 or 0.1 mM). The rats were hocussed with isoflurane and blood was collected from the abdominal aorta (Heparin anticoagulant). The blood was added into a 48-well cell culture plate (320 μL per well) containing the compounds to be tested. And then the 48-well cell culture plate was incubated at 37° C. After 30 min, the plate was added with 40 μL LPS (the final concentration was 100 μg/mL), and then were incubated at 37° C. after mixed. After 5 h, the 48-well plate was taken out and the blood was transferred into 1.5 mL centrifuge tubes and centrifuged in the centrifugal machine (4,500 rpm, 4° C., 5 min). The upper plasma was separated and kept portions (20 μL per well) into 96-well sample plate, and then sharp-frozen and preserved at refrigerator (−80° C.). The second day, the TNF-α level on the blood samples was tested by using R&D ELISA kits according to the kit specification. The data was analyzed by EXCEL and Prism.

The test system of experiment [2] is SD rat pulmonary fibrosis induced by Bleomycin. Description: Efficacy trial in vivo: SD rat pulmonary fibrosis induced by Bleomycin. Particulars: for improving tissue damage in the area and margin of pulmonary fibrosis lesions: doses per Table 5, FIGS. 1-4; for efficacy compared with the reference compound Pirfenidone: oral, 14 days. From the text:
Experimental purpose: test preventive therapeutic effects of compounds on SD rat pulmonary fibrosis induced by Bleomycin
Model: SD rat pulmonary fibrosis on the left lung; pulmonary fibrosis modelled by injecting Bleomycin into rat trachea
Molding agent: Bleomycin (BLM)
1 ? experimental grouping: efficacy trial for twice, besides common modeling group and Pirfenidone group as control reference, tested compounds were divided into […], i.e. model group (Group -1, n=7, Vehicle), control reference drug (group-2, n=7, Pirfenidone); tested compound WX001 group (Group-3, n=7), tested compound WX002 high dosage group (Group-4, n=7), tested compound WX002 low dosage group (Group-5, n=7) (Table 5)
2 ? Drug administration: Orally administering on the day the model was established, twice a day and administration for 14 day continuously 3 ? Physiological observation of experimental animal: detecting changes in animal weight (test weight before administration every day); detecting animal death rate during test period 4 ? euthanasia of animal after 14 days, formalin was injected into left lung to fix, and test volume and weight of left lung after injection and then test Lung Pathology (Table 6)
Test Results of Experiment: Test of tissue pathology of left lung: pathological evaluation of H&E dye: 1) pathological changes of left lung terminal bronchiole, 2) pathological changes of left lung pulmonary arteriole; pathological evaluation of Masson Thrichrome dye: 3) area of left lung pulmonary fibrosis, 4) score of left lung pulmonary fibrosis.

Each structure is given as a SMILES string.

`Cc1ccc(=O)n(-c2ccccc2)c1` [Pirfenidone, reference compound]: the inhibition – broadly, the percentage by which the read-out fell short of the control – at 500 µM in experiment [1] came out at 51.4%.

As to `CC1(c2ccc(=O)n(-c3ccccc3)c2)COC1` [WX001], the “improving tissue damage in the area and margin of pulmonary fibrosis lesions” value in experiment [2] (oral twice a day for 14 days) was “good effect”. Also, the “inhibition of TNF-α level induced by LPS (in words)” value (“inhibition of TNF-α level induced” for short) in experiment [1] (0.5 mM) is “significant inhibition”. Besides, in experiment [1], 500 µM produced 86.3% inhibition.

`CC1(c2ccc(=O)n(-c3ccsc3)c2)COC1` [WX002]: the “efficacy compared with the reference compound Pirfenidone” value in experiment [2] (low dose of 50 mpk group) and in experiment [2] (same dose of 100 mpk group) was “better efficacy than Pirfenidone” throughout. For the same compound, the “preventing the formation of pulmonary fibrosis” value in experiment [2] (oral twice a day for 14 days, FIG. 5) is listed as “good effect”. Besides, the “improving tissue damage in the area and margin of pulmonary fibrosis lesions” value in experiment [2] (oral twice a day for 14 days) is “good effect”. Besides, in experiment [1] (0.1 mM as final concentration), the “inhibition of TNF-α level induced” value is on record as “significant inhibition”. Further, the inhibition at 100 µM in experiment [1] came out at 74.6%.

`CC1(c2ccc(=O)n(-c3csc(Cl)c3)c2)COC1` [WX003]: the “inhibition of TNF-α level induced” value in experiment [1] (0.1 mM as final concentration) is given as “significant inhibition”. At 100 µM the inhibition in experiment [1] was 84.7%.

Take `Cc1cc(-n2cc(C3(C)COC3)ccc2=O)cs1` [WX004]: the “inhibition of TNF-α level induced” value in experiment [1] (0.1 mM as final concentration) was “significant inhibition”. This compound gave an inhibition at 100 µM in experiment [1] of 89.5%.

On to `CC1(c2ccc(=O)n(-c3cscn3)c2)COC1` [WX005], for which the inhibition at 100 µM in experiment [1] was determined as 61.6%.

In experiment [1], `O=c1ccc(C2(O)COC2)cn1-c1ccsc1` [WX009] showed an inhibition at 500 µM of 51.5%.

For `O=c1ccc(C2(F)COC2)cn1-c1ccsc1` [WX011], the “inhibition of TNF-α level induced” value in experiment [1] (0.1 mM as final concentration) was “significant inhibition”. This compound registered an inhibition at 100 µM in experiment [1] of 78.8%.
